Assay results: ChEMBL document CHEMBL5338806, “Rationally Designed Nonapeptides with Great Skin Photoprotective Effect through Producing Type 1 Collagen and Blocking the mTOR Pathway” (J Med Chem, 2023)
The source made the active and inactive calls. The calls are words filed in the database; no cut-off is given here. Where a SMILES comes first, the peptide text is derived from it.

Experiments:
[1] = Antioxidant activity assessed as ROS scavenging activity; assay type: functional
[2] = Antioxidant activity assessed as ABTS radical scavenging activity at 80 ug/mL incubated for 10 mins by absorbance based assay; assay type: functional; settings: dose 80.0 µg/ml
Mus musculus [3] = experiment: Protection against UV radiation-stress induced skin damage in Kunming mouse model assessed as repair of broken skin at 20 ug/ml administered topically and measured every 2 days for 10 days; assay type: functional, organism-based; settings: dose 20.0 µg/ml, route top, time 10.0 day
HEK293 = experiment: Activation of COL1a2 transcriptional activity in HEK293 cells by dual-luciferase reporter assay; assay type: functional, cell-based; settings: Homo sapiens
[4] = Antioxidant activity assessed as DPPH radical scavenging activity by measuring eradication rate at 80 ug/mL incubated for 30 mins by absorbance based assay relative to control; assay type: functional; settings: dose 80.0 µg/ml
HFF-1 [5] = experiment: Induction of autophagy in H2O2-induced SIPS HFF-1 cell model assessed as p62 expression at 5 to 25 ug/mL pretreated with compound for 24 hrs followed by H2O2 exposure for 2 hrs by Western blot analysis; assay type: functional, cell-based; settings: Homo sapiens, dose 5-25 µg/ml, time 26.0 hrs
[6] = Antioxidant activity assessed as ABTS radical scavenging activity in presence of 400 mM NaCl; assay type: functional
HFF-1 [7] = experiment: Inhibition of H2O2-stimulated IL-6 production in SIPS HFF-1 cell model pre-incubated with compound for 12 hrs followed by H2O2 stimulation for 60 mins by ELISA method; assay type: functional, cell-based; settings: Homo sapiens, dose 5-25 µg/ml, time 13.0 hrs
[8] = Antioxidant activity assessed as ABTS radical scavenging activity in presence of 50 mM NaCl; assay type: functional
Erythrocyte = experiment: Hemolytic activity in human erythrocytes assessed as release of hemoglobin at 10 to 160 ug/ml; assay type: toxicity, cell-based; settings: dose 10-160 µg/ml
Mus musculus [9] = experiment: In vivo anti-skin aging activity against UV-induced SIPS Kunming mouse model assessed as increase in Skin-fold thickness of dorsal skin at 100 ug/ml administered topically and measured for 10 weeks in presence of propylene glycol by caliper method; assay type: functional, organism-based; settings: dose 100.0 µg/ml, route top
[10] = Toxicity in Wistar rat mast cell assessed as cell degranulation by measuring beta-hexosaminidase release at 40 ug/mL incubated for 15 mins by fluorescence based analysis (reference value: 20.13 +/- 1.40 %); settings: 0.25 h, at 40 µg/mL
HFF-1 [11] = experiment: Inhibition of intracellular ROS level in UV-A-induced SIPS HFF-1 cell model assessed as reduction in ROS level pretreated with compound for 24 hrs followed by 10.8 J/cm^2 UV-A irritation incubated for 30 mins under dark condition by DCFH-DA staining based flow cytometry analysis; assay type: functional; settings: Homo sapiens, dose 5-50 µg/ml, time 24.5 hrs
[12] = Thermal stability of compound by measuring retention of ABTS radical scavenging activity at 2 mg/mL at 37 degC for 96 hrs; assay type: physicochemical
HFF-1 [13] = experiment: Upregulation of COL-1 expression in UV-A-induced SIPS HFF-1 cell model pretreated with compound for 24 hrs followed by 10.8 J/cm^2 UV-A irradiation by Western blot analysis; assay type: functional, cell-based; settings: Homo sapiens, dose 5-25 µg/ml
HFF-1 [14] = experiment: Induction of autophagy in H2O2-induced SIPS HFF-1 cell model assessed as phosphorylated AMPK expression at 5 to 25 ug/mL pretreated with compound for 24 hrs followed by H2O2 exposure for 2 hrs by Western blot analysis; assay type: functional, cell-based; settings: Homo sapiens, dose 5-25 µg/ml, time 26.0 hrs
Mus musculus [15] = experiment: In vivo anti-skin aging activity against UV-induced SIPS Kunming mouse model assessed as restoration of skin elasticity at 100 ug/ml administered topically for 5 weeks in presence of propylene glycol; assay type: functional, organism-based; settings: dose 100.0 µg/ml, route top
HFF-1 [16] = experiment: Inhibition of H2O2-induced AKT activation in HFF-1 cells assessed as downregulation of mTOR phosphorylation at 5 to 25 ug/mL pretreated with compound for 24 hrs followed by H2O2 exposure for 2 hrs by Western blot analysis; assay type: cell-based; settings: Homo sapiens, dose 5-25 µg/ml, time 26.0 hrs
HFF-1 [17] = experiment: Cytotoxicity against HFF-1 cells upto 160 ug/mL incubated for 24 hrs by MTT assay; assay type: toxicity, cell-based; settings: human, hff-1, 24 h, up to 160 µg/mL
HFF-1 [18] = experiment: Protection against UV-A/H2O2-stress induced premature senescence HFF-1 cell model assessed as cell migration by measuring cellular repair activity at 10 ug/mL upto 24 hrs by inverted microscopic based cell scratch assay; assay type: functional; settings: Homo sapiens, dose 10.0 µg/ml
HFF-1 [19] = experiment: Antioxidant activity against UV-A-induced SIPS HFF-1 cell model assessed as recovery of CAT level at 5 to 25 ug/mL pretreated with compound followed by 10.8 J/cm^2 UV-A irradiation; assay type: functional, cell-based; settings: Homo sapiens, dose 5-25 µg/ml
HFF-1 [20] = experiment: Antioxidant activity against UV-A-induced SIPS HFF-1 cell model assessed as recovery of SOD level at 5 to 25 ug/mL pretreated with compound followed by 10.8 J/cm^2 UV-A irradiation; assay type: functional, cell-based; settings: Homo sapiens, dose 5-25 µg/ml
[21] = molecular target: Ribosomal protein S6 kinase (Homo sapiens) (UniProt P51812+Q9UBS0+O75676+Q15349+O75582+P23443+Q9UK32+Q15418); experiment: Inhibition of H2O2-induced S6K phosphorylation in HFF-1 cells at 5 to 25 ug/mL pretreated with compound for 24 hrs followed by H2O2 exposure for 2 hrs by Western blot analysis; assay type: cell-based; settings: dose 5-25 µg/ml, time 26.0 hrs
HFF-1 [22] = experiment: Downregulation of MMP-1 expression in UV-A-induced SIPS HFF-1 cell model pretreated with compound for 24 hrs followed by 10.8 J/cm^2 UV-A irradiation by Western blot analysis; assay type: functional, cell-based; settings: Homo sapiens, dose 5-25 µg/ml
[23] = Toxicity in Wistar rat mast cell assessed as cell degranulation by measuring increase in beta-hexosaminidase release at 40 ug/mL incubated for 15 mins by fluorescence based analysis (reference value: 0 +/- 1.40 %); settings: 0.25 h, at 40 µg/mL
[24] = Toxicity in Wistar rat mast cell assessed as cell degranulation by measuring increase in beta-hexosaminidase release at 160 ug/mL incubated for 15 mins by fluorescence based analysis (reference value: 0 +/- 1.40 %); settings: 0.25 h, at 160 µg/mL
Mus musculus [25] = experiment: In vivo anti-skin aging activity against UV-induced SIPS Kunming mouse model assessed as upregulation of skin elasticity at 100 ug/ml administered topically and measured for 10 weeks in presence of propylene glycol; assay type: functional, organism-based; settings: dose 100.0 µg/ml, route top
[26] = Stability of compound in human serum assessed as protease mediated degradation at 2 mg/mL incubated for 24 hrs by RP-HPLC analysis; assay type: ADME, cell-free
HFF-1 [27] = experiment: Inhibition of H2O2-stimulated TNF-alpha production in SIPS HFF-1 cell model pre-incubated with compound for 12 hrs followed by H2O2 stimulation for 60 mins by ELISA method; assay type: functional, cell-based; settings: Homo sapiens, dose 5-25 µg/ml, time 13.0 hrs
[28] = Toxicity in Wistar rat mast cell assessed as cell degranulation by measuring increase in beta-hexosaminidase release at 10 ug/mL incubated for 15 mins by fluorescence based analysis (reference value: 0 +/- 1.40 %); settings: 0.25 h, at 10 µg/mL
Mus musculus [29] = experiment: In vivo anti-skin aging activity against UV-induced SIPS Kunming mouse model assessed as restoration of dorsal skin thickness at 100 ug/ml administered topically for 5 weeks in presence of propylene glycol by caliper method; assay type: functional, organism-based; settings: dose 100.0 µg/ml, route top
HFF-1 [30] = experiment: Induction of autophagy in H2O2-induced SIPS HFF-1 cell model assessed as ratio of LC3BII/LC3BI levels at 5 to 25 ug/mL pretreated with compound for 24 hrs followed by H2O2 exposure for 2 hrs by Western blot analysis; assay type: functional, cell-based; settings: Homo sapiens, dose 5-25 µg/ml, time 26.0 hrs
[31] = molecular target: Nuclear factor NF-kappa-B complex (Homo sapiens) (UniProt Q00653+P19838+Q04206); experiment: Inhibition of NF-kappaB activation in HFF-1 cells assessed as suppression of UV-A-induced IkappaBalpha degradation at 5 to 25 ug/mL pretreated with compound for 24 hrs followed by 10.8 J/cm^2 UV-A irradiation by Western blot analysis; assay type: cell-based; settings: dose 5-25 µg/ml
HFF-1 [32] = experiment: Inhibition of H2O2-induced AKT phosphorylation in HFF-1 cells at 5 to 25 ug/mL pretreated with compound for 24 hrs followed by H2O2 exposure for 2 hrs by Western blot analysis; assay type: cell-based; settings: Homo sapiens, dose 5-25 µg/ml, time 26.0 hrs
Mus musculus [33] = experiment: In vivo anti-skin aging activity against UV-induced SIPS Kunming mouse model assessed as repair of wrinkled skin at 100 ug/ml administered topically for 5 weeks in presence of propylene glycol by macroscopic analysis; assay type: functional, organism-based; settings: dose 100.0 µg/ml, route top
HFF-1 [34] = experiment: Induction of HFF-1 cell migration at 10 ug/mL measured for 2 to 8 hrs by transwell migration assay; assay type: functional, cell-based; settings: Homo sapiens, dose 10.0 µg/ml, time 2-8 hrs
[35] = Toxicity in Wistar rat mast cell assessed as cell degranulation by measuring beta-hexosaminidase release at 10 ug/mL incubated for 15 mins by fluorescence based analysis (reference value: 20.13 +/- 1.40 %); settings: 0.25 h, at 10 µg/mL
HFF-1 [36] = experiment: Protection against H2O2-induced SIPS HFF-1 cell model assessed as reduction in cell senescence at 5 to 25 ug/mL pretreated for 24 hrs followed by irritation with H2O2 for 2 hrs by SA-beta-Gal staining assay; assay type: functional, cell-based; settings: Homo sapiens, dose 5-25 µg/ml, time 26.0 hrs
[37] = Toxicity in Wistar rat mast cell assessed as cell degranulation by measuring beta-hexosaminidase release at 160 ug/mL incubated for 15 mins by fluorescence based analysis (reference value: 20.13 +/- 1.40 %); settings: 0.25 h, at 160 µg/mL
Mus musculus [38] = experiment: In vivo anti-skin aging activity against UV-induced SIPS Kunming mouse model assessed as prevention of wrinkle and erythema formation at 100 ug/ml administered topically and measured for 10 weeks in presence of propylene glycol by macroscopic analysis; assay type: functional, organism-based; settings: dose 100.0 µg/ml, route top
HFF-1 [39] = experiment: Restoration of H2O2-induced mitochondrial membrane potential damage in SIPS HFF-1 cell model at 5 to 25 ug/mL incubated for 20 mins by JC-1 staining based fluorescence microscopic analysis; assay type: functional; settings: Homo sapiens, dose 5-25 µg/ml
HFF-1 [40] = experiment: Inhibition of H2O2-stimulated IL-1beta production in SIPS HFF-1 cell model pre-incubated with compound for 12 hrs followed by H2O2 stimulation for 60 mins by ELISA method; assay type: functional, cell-based; settings: Homo sapiens, dose 5-25 µg/ml, time 13.0 hrs
HFF-1 [41] = experiment: Induction of autophagy in H2O2-induced SIPS HFF-1 cell model assessed as beclin-1 expression at 5 to 25 ug/mL pretreated with compound for 24 hrs followed by H2O2 exposure for 2 hrs by Western blot analysis; assay type: functional, cell-based; settings: Homo sapiens, dose 5-25 µg/ml, time 26.0 hrs

Sequence of Nuclear factor NF-kappa-B complex (Homo sapiens) (P19838 whole entry, looked up): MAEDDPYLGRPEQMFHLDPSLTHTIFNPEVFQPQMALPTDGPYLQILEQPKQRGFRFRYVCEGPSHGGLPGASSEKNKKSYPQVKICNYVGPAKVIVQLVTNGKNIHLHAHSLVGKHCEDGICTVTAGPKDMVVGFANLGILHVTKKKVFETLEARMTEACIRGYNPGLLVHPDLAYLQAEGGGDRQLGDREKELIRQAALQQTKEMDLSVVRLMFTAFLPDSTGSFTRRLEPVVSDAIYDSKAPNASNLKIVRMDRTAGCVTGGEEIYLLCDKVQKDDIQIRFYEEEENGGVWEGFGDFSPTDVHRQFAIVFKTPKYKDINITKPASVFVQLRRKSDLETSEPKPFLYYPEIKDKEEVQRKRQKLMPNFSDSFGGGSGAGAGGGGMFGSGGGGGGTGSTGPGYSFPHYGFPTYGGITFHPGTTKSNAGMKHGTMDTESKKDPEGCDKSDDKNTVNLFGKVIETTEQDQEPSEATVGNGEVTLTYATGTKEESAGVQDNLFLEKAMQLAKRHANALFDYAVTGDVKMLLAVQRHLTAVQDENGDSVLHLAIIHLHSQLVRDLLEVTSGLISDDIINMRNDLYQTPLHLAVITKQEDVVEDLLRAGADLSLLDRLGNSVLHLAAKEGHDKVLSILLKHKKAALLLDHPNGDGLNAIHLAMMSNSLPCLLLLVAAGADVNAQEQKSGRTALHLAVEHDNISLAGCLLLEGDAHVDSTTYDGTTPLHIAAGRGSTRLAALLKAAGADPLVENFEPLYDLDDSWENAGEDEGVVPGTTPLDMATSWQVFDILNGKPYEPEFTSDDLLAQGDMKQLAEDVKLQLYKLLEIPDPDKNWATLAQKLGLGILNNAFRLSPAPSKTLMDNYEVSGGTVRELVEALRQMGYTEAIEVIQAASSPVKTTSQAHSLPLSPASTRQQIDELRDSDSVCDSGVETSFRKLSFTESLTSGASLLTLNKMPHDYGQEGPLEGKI
Sequence of Nuclear factor NF-kappa-B complex (Homo sapiens) (Q00653 whole entry, looked up): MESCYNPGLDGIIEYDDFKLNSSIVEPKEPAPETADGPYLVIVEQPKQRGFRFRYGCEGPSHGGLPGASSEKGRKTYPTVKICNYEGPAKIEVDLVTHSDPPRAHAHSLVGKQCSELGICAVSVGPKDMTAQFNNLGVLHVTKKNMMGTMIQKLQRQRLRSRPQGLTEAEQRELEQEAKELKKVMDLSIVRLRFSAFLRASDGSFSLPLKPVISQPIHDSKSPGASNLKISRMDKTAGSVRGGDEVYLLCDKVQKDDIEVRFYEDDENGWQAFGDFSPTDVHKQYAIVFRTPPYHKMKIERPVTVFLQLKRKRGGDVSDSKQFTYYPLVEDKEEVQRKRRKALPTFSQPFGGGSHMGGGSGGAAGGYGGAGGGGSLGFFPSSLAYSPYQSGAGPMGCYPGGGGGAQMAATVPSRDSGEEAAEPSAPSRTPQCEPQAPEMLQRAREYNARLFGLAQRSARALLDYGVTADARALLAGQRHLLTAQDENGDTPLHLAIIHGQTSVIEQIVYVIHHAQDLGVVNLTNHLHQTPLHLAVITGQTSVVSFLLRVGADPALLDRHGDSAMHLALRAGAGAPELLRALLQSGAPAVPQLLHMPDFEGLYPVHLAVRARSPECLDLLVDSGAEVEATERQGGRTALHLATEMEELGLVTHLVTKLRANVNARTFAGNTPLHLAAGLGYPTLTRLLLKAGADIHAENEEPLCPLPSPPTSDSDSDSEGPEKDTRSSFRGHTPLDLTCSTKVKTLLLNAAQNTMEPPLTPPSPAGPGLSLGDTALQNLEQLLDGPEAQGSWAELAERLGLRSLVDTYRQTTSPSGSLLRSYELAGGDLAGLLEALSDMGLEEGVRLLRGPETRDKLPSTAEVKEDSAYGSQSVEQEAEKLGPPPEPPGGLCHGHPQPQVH
Sequence of Nuclear factor NF-kappa-B complex (Homo sapiens) (Q04206 whole entry, looked up): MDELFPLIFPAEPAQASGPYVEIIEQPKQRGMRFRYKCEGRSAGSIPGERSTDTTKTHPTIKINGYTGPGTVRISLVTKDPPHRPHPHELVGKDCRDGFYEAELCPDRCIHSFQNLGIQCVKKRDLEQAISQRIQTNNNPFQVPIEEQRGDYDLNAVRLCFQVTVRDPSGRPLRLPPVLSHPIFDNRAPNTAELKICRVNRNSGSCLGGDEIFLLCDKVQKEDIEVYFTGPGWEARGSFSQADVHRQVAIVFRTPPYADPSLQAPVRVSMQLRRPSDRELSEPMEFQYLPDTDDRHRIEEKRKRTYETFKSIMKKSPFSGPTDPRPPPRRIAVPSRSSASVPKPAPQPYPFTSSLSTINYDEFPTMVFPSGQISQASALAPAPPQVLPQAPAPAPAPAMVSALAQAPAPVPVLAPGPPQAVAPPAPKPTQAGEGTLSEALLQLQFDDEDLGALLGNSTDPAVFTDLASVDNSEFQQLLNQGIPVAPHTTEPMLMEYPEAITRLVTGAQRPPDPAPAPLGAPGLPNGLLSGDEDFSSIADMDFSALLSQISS

Structure (SMILES): CC(C)C[C@H](NC(=O)[C@@H](N)C(C)C)C(=O)N1CCC[C@H]1C(=O)N[C@@H](CCCCN)C(=O)N[C@@H](CS)C(=O)N[C@@H](Cc1c[nH]c2ccccc12)C(=O)O (H-VLPKCW-OH)
- Activity [1]: Active

Structure (SMILES): CC(C)C[C@H](NC(=O)[C@@H](N)C(C)C)C(=O)N[C@@H](CCCCN)C(=O)N[C@@H](CCCCN)C(=O)N[C@@H](CS)C(=O)O (H-VLKKC-OH)
- Activity [2]: Active
- Activity [1]: Active
- Activity (Mus musculus [3]): Active
- Activity (HEK293): Active
- Activity [4]: 96.8%

Structure (SMILES): CC(C)[C@H](N)C(=O)N[C@H](C(=O)N1CCC[C@H]1C(=O)N[C@H](C(=O)N[C@H](C(=O)N[C@H](C(=O)N[C@@H](CS)C(=O)N1CCC[C@H]1C(=O)N[C@@H](CCCCN)C(=O)O)C(C)C)C(C)C)[C@@H](C)O)C(C)C (H-VVPTVVCPK-OH)
- Activity (HFF-1 [5]): Active
- Activity [6]: Active
- inhibition (HFF-1 [7]): Dose-Dependent Effect
- Activity [8]: Active
- Activity (Erythrocyte): Non-Toxic
- Activity (Mus musculus [9]): Active
- Activity [10]: 23.14%
- inhibition (HFF-1 [11]): Dose-Dependent Effect
- Activity [12]: Active
- Activity (HFF-1 [13]): Dose-Dependent Effect
- Activity (HFF-1 [14]): Active
- Activity (Mus musculus [15]): Active
- inhibition (HFF-1 [16]): Active
- Activity (HFF-1 [17]): 5.14%
- Activity (HFF-1 [18]): Active
- Activity (HFF-1 [19]): Active
- Activity (HFF-1 [20]): Active
- Activity [1]: Active
- inhibition [21]: Active
- Activity (HFF-1 [22]): Dose-Dependent Effect
- Activity [23]: 3.01%
- Activity [24]: 5.9%
- Activity (Mus musculus [25]): Active
- Stability [26]: Stable
- Activity (Mus musculus [3]): Active
- inhibition (HFF-1 [27]): Dose-Dependent Effect
- Activity [28]: 1.27%
- Activity (Mus musculus [29]): Active
- Activity (HFF-1 [30]): Active
- Activity [31]: Active
- inhibition (HFF-1 [32]): Active
- Activity (Mus musculus [33]): Active
- Activity (HFF-1 [34]): Active
- Activity [35]: 21.4%
- Activity (HFF-1 [36]): Active
- Activity [37]: 26.03%
- Activity (Mus musculus [38]): Active
- Activity (HFF-1 [39]): Active
- inhibition (HFF-1 [40]): Dose-Dependent Effect
- Activity (HFF-1 [41]): Active
- Activity (HEK293): Active

Structure (SMILES): CC(C)[C@H](N)C(=O)N[C@H](C(=O)N[C@@H](CS)C(=O)N1CCC[C@H]1C(=O)N[C@@H](CCCCN)C(=O)O)C(C)C (H-VVCPK-OH)
- Activity [2]: Active
- Activity [1]: Active
- Activity (HEK293): Active
